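In this assay, cells in 96-well plates receive the compound at five concentrations for 48 hours. Endpoints are linearly interpolated between the surrounding concentrations. Here, GI50 denotes the concentration required for 50% inhibition of growth. At the TGI there is no net growth.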
Tests used:
Assay in all cases: inhibition of tumour cell growth, NCI panel, 48 h
786-0 renal = tested on: 786-0 renal
A498 renal = tested on: A498 renal
A549 NSCLC = tested on: A549 NSCLC
ACHN renal = tested on: ACHN renal
BT-549 breast = tested on: BT-549 breast
CAKI-1 renal = tested on: CAKI-1 renal
CCRF-CEM leukemia = tested on: CCRF-CEM leukemia
COLO 205 colon = tested on: COLO 205 colon
DU-145 prostate = tested on: DU-145 prostate
EKVX NSCLC = tested on: EKVX NSCLC
HCC-2998 colon = tested on: HCC-2998 colon
HCT-116 colon = tested on: HCT-116 colon
HCT-15 colon = tested on: HCT-15 colon
HL-60(TB) leukemia = tested on: HL-60(TB) leukemia
HOP-62 NSCLC = tested on: HOP-62 NSCLC
HOP-92 NSCLC = tested on: HOP-92 NSCLC
HS 578T breast = tested on: HS 578T breast
HT29 colon = tested on: HT29 colon
IGROV1 ovarian = tested on: IGROV1 ovarian
KM12 colon = tested on: KM12 colon
LOX IMVI melanoma = tested on: LOX IMVI melanoma
M14 melanoma = tested on: M14 melanoma
MALME-3M melanoma = tested on: MALME-3M melanoma
MCF7 breast = tested on: MCF7 breast
MDA-MB-231 breast = tested on: MDA-MB-231 breast
MDA-MB-435 = tested on: MDA-MB-435
MOLT-4 leukemia = tested on: MOLT-4 leukemia
NCI-H226 lung = tested on: NCI-H226 lung
NCI-H23 lung = tested on: NCI-H23 lung
NCI-H460 lung = tested on: NCI-H460 lung
OVCAR-3 ovarian = tested on: OVCAR-3 ovarian
OVCAR-4 ovarian = tested on: OVCAR-4 ovarian
OVCAR-5 ovarian = tested on: OVCAR-5 ovarian
OVCAR-8 ovarian = tested on: OVCAR-8 ovarian
PC-3 prostate = tested on: PC-3 prostate
RPMI-8226 leukemia = tested on: RPMI-8226 leukemia
RXF 393 renal = tested on: RXF 393 renal
SF-268 CNS = tested on: SF-268 CNS
SF-539 CNS = tested on: SF-539 CNS
SK-MEL-2 melanoma = tested on: SK-MEL-2 melanoma
SK-MEL-28 melanoma = tested on: SK-MEL-28 melanoma
SK-MEL-5 melanoma = tested on: SK-MEL-5 melanoma
SK-OV-3 ovarian = tested on: SK-OV-3 ovarian
SN12C renal = tested on: SN12C renal
SNB-19 CNS = tested on: SNB-19 CNS
SNB-75 CNS = tested on: SNB-75 CNS
SR leukemia = tested on: SR leukemia
SW-620 colon = tested on: SW-620 colon
T-47D breast = tested on: T-47D breast
TK-10 renal = tested on: TK-10 renal
U251 CNS = tested on: U251 CNS
UACC-257 melanoma = tested on: UACC-257 melanoma
UACC-62 melanoma = tested on: UACC-62 melanoma
UO-31 renal = tested on: UO-31 renal

COc1ccc(/C=C/C(=O)Nc2cc(/C=C\c3cc(OC)c(OC)c(OC)c3)cc(OC)c2OC)cc1OC
GI50 (786-0 renal): 2.98 µM | TGI (786-0 renal): > 100 µM | GI50 (A498 renal): 4.92 µM | TGI (A498 renal): > 100 µM | GI50 (A549 NSCLC): 3.69 µM | TGI (A549 NSCLC): > 100 µM | GI50 (ACHN renal): 4.68 µM | TGI (ACHN renal): > 100 µM | GI50 (BT-549 breast): 3.36 µM | TGI (BT-549 breast): 57.8 µM | GI50 (CAKI-1 renal): 2.16 µM | TGI (CAKI-1 renal): > 100 µM | GI50 (CCRF-CEM leukemia): 2.48 µM | TGI (CCRF-CEM leukemia): > 100 µM | GI50 (COLO 205 colon): 2.65 µM | TGI (COLO 205 colon): 6.55 µM | GI50 (DU-145 prostate): 26.6 µM | TGI (DU-145 prostate): > 100 µM | GI50 (EKVX NSCLC): 3.47 µM | TGI (EKVX NSCLC): > 100 µM | GI50 (HCC-2998 colon): 6.95 µM | TGI (HCC-2998 colon): > 100 µM | GI50 (HCT-116 colon): 3.71 µM | TGI (HCT-116 colon): > 100 µM | GI50 (HCT-15 colon): 3.58 µM | TGI (HCT-15 colon): > 100 µM | GI50 (HL-60(TB) leukemia): 2.3 µM | TGI (HL-60(TB) leukemia): 7.66 µM | GI50 (HOP-62 NSCLC): 3.15 µM | TGI (HOP-62 NSCLC): > 100 µM | GI50 (HOP-92 NSCLC): > 100 µM | TGI (HOP-92 NSCLC): > 100 µM | GI50 (HS 578T breast): 8.92 µM | TGI (HS 578T breast): > 100 µM | GI50 (HT29 colon): 3.64 µM | TGI (HT29 colon): > 100 µM | GI50 (IGROV1 ovarian): 7.48 µM | TGI (IGROV1 ovarian): > 100 µM | GI50 (KM12 colon): 4.22 µM | TGI (KM12 colon): > 100 µM | GI50 (LOX IMVI melanoma): 4 µM | TGI (LOX IMVI melanoma): > 100 µM | GI50 (M14 melanoma): 3.01 µM | TGI (M14 melanoma): > 100 µM | GI50 (MALME-3M melanoma): 2.8 µM | TGI (MALME-3M melanoma): > 100 µM | GI50 (MCF7 breast): 2.44 µM | TGI (MCF7 breast): > 100 µM | GI50 (MDA-MB-231 breast): 6.65 µM | TGI (MDA-MB-231 breast): > 100 µM | GI50 (MDA-MB-435): 1.29 µM | TGI (MDA-MB-435): 4.52 µM | GI50 (MOLT-4 leukemia): 3.35 µM | TGI (MOLT-4 leukemia): > 100 µM | GI50 (NCI-H226 lung): 3.62 µM | TGI (NCI-H226 lung): > 100 µM | GI50 (NCI-H23 lung): 3.48 µM | TGI (NCI-H23 lung): > 100 µM | GI50 (NCI-H460 lung): 3.37 µM | TGI (NCI-H460 lung): > 100 µM | GI50 (OVCAR-3 ovarian): 5.53 µM | TGI (OVCAR-3 ovarian): > 100 µM | GI50 (OVCAR-4 ovarian): 2.49 µM | TGI (OVCAR-4 ovarian): > 100 µM | GI50 (OVCAR-5 ovarian): 6.49 µM | TGI (OVCAR-5 ovarian): > 100 µM | GI50 (OVCAR-8 ovarian): 3.44 µM | TGI (OVCAR-8 ovarian): > 100 µM | GI50 (PC-3 prostate): 3.06 µM | TGI (PC-3 prostate): > 100 µM | GI50 (RPMI-8226 leukemia): 2.14 µM | TGI (RPMI-8226 leukemia): > 100 µM | GI50 (RXF 393 renal): 2.23 µM | TGI (RXF 393 renal): 6.42 µM | GI50 (SF-268 CNS): 9.1 µM | TGI (SF-268 CNS): > 100 µM | GI50 (SF-539 CNS): 3.7 µM | TGI (SF-539 CNS): > 100 µM | GI50 (SK-MEL-2 melanoma): 3.05 µM | TGI (SK-MEL-2 melanoma): 9.4 µM | GI50 (SK-MEL-28 melanoma): 2.87 µM | TGI (SK-MEL-28 melanoma): > 100 µM | GI50 (SK-MEL-5 melanoma): 1.61 µM | TGI (SK-MEL-5 melanoma): 3.65 µM | GI50 (SK-OV-3 ovarian): 3.02 µM | TGI (SK-OV-3 ovarian): 8.48 µM | GI50 (SN12C renal): 3.96 µM | TGI (SN12C renal): > 100 µM | GI50 (SNB-19 CNS): 4.3 µM | TGI (SNB-19 CNS): > 100 µM | GI50 (SNB-75 CNS): 1.68 µM | TGI (SNB-75 CNS): 7.46 µM | GI50 (SR leukemia): 0.668 µM | TGI (SR leukemia): > 100 µM | GI50 (SW-620 colon): 5.05 µM | TGI (SW-620 colon): > 100 µM | GI50 (T-47D breast): 2.21 µM | TGI (T-47D breast): 8.73 µM | GI50 (TK-10 renal): 5.13 µM | TGI (TK-10 renal): > 100 µM | GI50 (U251 CNS): 4.22 µM | TGI (U251 CNS): > 100 µM | GI50 (UACC-257 melanoma): 6.5 µM | TGI (UACC-257 melanoma): > 100 µM | GI50 (UACC-62 melanoma): 2.21 µM | TGI (UACC-62 melanoma): > 100 µM | GI50 (UO-31 renal): 2.31 µM | TGI (UO-31 renal): > 100 µM

Source: PubChem BioAssay (NCI)
